From ChEMBL document CHEMBL3885881, “DrugMatrix”

Species on record: Rattus norvegicus
Assay: DrugMatrix - Regimen: Daily Repeat
Assay type: toxicity, organism-based, Sprague-Dawley
Design: regimen Daily Repeat, gender Male, age 6-8 weeks
Conditions: in vivo, po, 450 mg/kg, route oral GAVAGE, dose level High, […]; for ABSOLUTE BASOPHIL / ABSOLUTE EOSINOPHIL / ABSOLUTE LYMPHOCYTE / ABSOLUTE MONOCYTE / ABSOLUTE SEGMENTED NEUTROPHIL / BASOPHIL / EOSINOPHIL / ERYTHROCYTE COUNT / HEMATOCRIT / HEMOGLOBIN / LEUKOCYTE COUNT / LYMPHOCYTE / MEAN CORPUSCULAR HEMOGLOBIN / MEAN CORPUSCULAR HEMOGLOBIN CONCENTRATION / MEAN CORPUSCULAR VOLUME / MONOCYTE / NEUTROPHIL / NUCLEATED RED BLOOD CELLS / PLATELET COUNT: tissue Blood; for ALANINE AMINOTRANSFERASE / ALBUMIN / ALKALINE PHOSPHATASE / ASPARTATE AMINOTRANSFERASE / BLOOD UREA NITROGEN / CARBON DIOXIDE / CHLORIDE / CHOLESTEROL / CREATINE PHOSPHOKINASE / CREATININE / GLUCOSE / LACTATE DEHYDROGENASE / LIPASE / PHOSPHORUS / POTASSIUM / SODIUM / TOTAL BILIRUBIN / TOTAL PROTEIN / URIC ACID: tissue Plasma

CC(c1cc2ccccc2s1)N(O)C(N)=O (stereo unspecified) [ZILEUTON]
ABSOLUTE BASOPHIL (72 h, time 3 day): 0 CELLS/uL
ABSOLUTE EOSINOPHIL (72 h, time 3 day): 0 CELLS/uL
ABSOLUTE LYMPHOCYTE (72 h, time 3 day): 15031 CELLS/uL
ABSOLUTE MONOCYTE (72 h, time 3 day): 0 CELLS/uL
ABSOLUTE SEGMENTED NEUTROPHIL (72 h, time 3 day): 1769 CELLS/uL
BASOPHIL (72 h, time 3 day): 0%
EOSINOPHIL (72 h, time 3 day): 0%
ERYTHROCYTE COUNT (72 h, time 3 day): 5.39 x10E6/uL
HEMATOCRIT (72 h, time 3 day): 32.93%
HEMOGLOBIN (72 h, time 3 day): 13.6 G/DL
LEUKOCYTE COUNT (72 h, time 3 day): 16.8 x10E3/uL
LYMPHOCYTE (72 h, time 3 day): 89.33%
MEAN CORPUSCULAR HEMOGLOBIN (72 h, time 3 day): 25.27 pg
MEAN CORPUSCULAR HEMOGLOBIN CONCENTRATION (72 h, time 3 day): 41.33 G/DL
MEAN CORPUSCULAR VOLUME (72 h, time 3 day): 61.1 fL
MONOCYTE (72 h, time 3 day): 0%
NEUTROPHIL (72 h, time 3 day): 10.67%
NUCLEATED RED BLOOD CELLS (72 h, time 3 day): 0.33 /100WBC
PLATELET COUNT (72 h, time 3 day): 1249 x10E3/uL
ALANINE AMINOTRANSFERASE (72 h, time 3 day): 87.67 u/L
ALBUMIN (72 h, time 3 day): 3.67 G/DL
ALKALINE PHOSPHATASE (72 h, time 3 day): 458 u/L
ASPARTATE AMINOTRANSFERASE (72 h, time 3 day): 128 u/L
BLOOD UREA NITROGEN (72 h, time 3 day): 17.67 mg/dL
CARBON DIOXIDE (72 h, time 3 day): 25.33 mmol/L
CHLORIDE (72 h, time 3 day): 103.67 MEQ/L
CHOLESTEROL (72 h, time 3 day): 65.67 mg/dL
CREATINE PHOSPHOKINASE (72 h, time 3 day): 774.33 u/L
CREATININE (72 h, time 3 day): 0.18 mg/dL
GLUCOSE (72 h, time 3 day): 148.33 mg/dL
LACTATE DEHYDROGENASE (72 h, time 3 day): 301.67 u/L
LIPASE (72 h, time 3 day): 10.67 u/L
PHOSPHORUS (72 h, time 3 day): 12.57 mg/dL
POTASSIUM (72 h, time 3 day): 5.93 MEQ/L
SODIUM (72 h, time 3 day): 142.9 MEQ/L
TOTAL BILIRUBIN (72 h, time 3 day): 0.2 mg/dL
TOTAL PROTEIN (72 h, time 3 day): 5.13 G/DL
URIC ACID (72 h, time 3 day): 1.47 mg/dL
ABSOLUTE BASOPHIL (120 h, time 5 day): 0 CELLS/uL
ABSOLUTE EOSINOPHIL (120 h, time 5 day): 45 CELLS/uL
ABSOLUTE LYMPHOCYTE (120 h, time 5 day): 16299.33 CELLS/uL
ABSOLUTE MONOCYTE (120 h, time 5 day): 207.67 CELLS/uL
ABSOLUTE SEGMENTED NEUTROPHIL (120 h, time 5 day): 1114.67 CELLS/uL
BASOPHIL (120 h, time 5 day): 0%
EOSINOPHIL (120 h, time 5 day): 0.33%
ERYTHROCYTE COUNT (120 h, time 5 day): 5.62 x10E6/uL
HEMATOCRIT (120 h, time 5 day): 34.17%
HEMOGLOBIN (120 h, time 5 day): 13.87 G/DL
LEUKOCYTE COUNT (120 h, time 5 day): 17.67 x10E3/uL
LYMPHOCYTE (120 h, time 5 day): 92.33%
MEAN CORPUSCULAR HEMOGLOBIN (120 h, time 5 day): 24.73 pg
MEAN CORPUSCULAR HEMOGLOBIN CONCENTRATION (120 h, time 5 day): 40.6 G/DL
MEAN CORPUSCULAR VOLUME (120 h, time 5 day): 60.87 fL
MONOCYTE (120 h, time 5 day): 1%
NEUTROPHIL (120 h, time 5 day): 6.33%
NUCLEATED RED BLOOD CELLS (120 h, time 5 day): 0 /100WBC
PLATELET COUNT (120 h, time 5 day): 1205.33 x10E3/uL
ALANINE AMINOTRANSFERASE (120 h, time 5 day): 64.33 u/L
ALBUMIN (120 h, time 5 day): 4.1 G/DL
ALKALINE PHOSPHATASE (120 h, time 5 day): 388 u/L
ASPARTATE AMINOTRANSFERASE (120 h, time 5 day): 79.33 u/L
BLOOD UREA NITROGEN (120 h, time 5 day): 16 mg/dL
CARBON DIOXIDE (120 h, time 5 day): 37.67 mmol/L
CHLORIDE (120 h, time 5 day): 99.33 MEQ/L
CHOLESTEROL (120 h, time 5 day): 79 mg/dL
CREATINE PHOSPHOKINASE (120 h, time 5 day): 125 u/L
CREATININE (120 h, time 5 day): 0.15 mg/dL
GLUCOSE (120 h, time 5 day): 142 mg/dL
LACTATE DEHYDROGENASE (120 h, time 5 day): 75 u/L
LIPASE (120 h, time 5 day): 10.33 u/L
PHOSPHORUS (120 h, time 5 day): 10.97 mg/dL
POTASSIUM (120 h, time 5 day): 6.65 MEQ/L
SODIUM (120 h, time 5 day): 142.6 MEQ/L
TOTAL BILIRUBIN (120 h, time 5 day): 0.2 mg/dL
TOTAL PROTEIN (120 h, time 5 day): 5.8 G/DL
URIC ACID (120 h, time 5 day): 1.7 mg/dL
